Experimental data taken from article PMC8191380 (Nucleosides, nucleotides & nucleic acids, 2019).
Where two headings read alike, the source gives them in different places.

Legend:
MT-2 cells = test: Cytotoxicity in MT-2 cells; type: cell-based; details: for CC50: read-out: CC50 (50% cytotoxic concentration)
[1] = Cytotoxicity in MT-2 cells; type: cell-based; details: human
HIV [2] = details: read-out: anti-HIV activity EC50; reported in 1992; cited from earlier work
HBV [3] = test: Anti-HBV assay in HBV-producing HepG2 2.2.15 cells; type: cell-based, Hepatitis B virus; details: read-out: EC50 (50% effective concentration; concentration that inhibits 50% of virus replication)
[4] = cited from earlier work
HBV [5] = details: cited from earlier work; for EC50: read-out: anti-HBV activity EC50
HIV-1 = details: cited from earlier work
HBV [6] = details: read-out: anti-HBV activity EC50; cited from earlier work
HIV [7] = details: cited from earlier work
wild-type HBV = details: cited from earlier work
entecavir-resistant HBV = details: cited from earlier work
HBV [8] = details: read-out: anti-HBV activity EC50; cited from earlier work; remark: listed apart in the source
[9] = Hepatitis B virus, HepG2 2.2.15, 336 h
[10] = HepG2 2.2.15 cells, day 14, HBV DNA

**Q.** Which results are given for Cc1cn([C@H]2C[C@H](O)[C@](CO)(N=[N+]=[N-])O2)c(=O)[nH]c1=O [Compound 6, 4′-azido thymidine]?
**A.** no cytotoxicity up to (concentration) (MT-2 cells): > 100 µM; CC50 [1]: > 100 µM; EC50 (HIV [2]): 0.01 µM; EC50 (HBV [3]; [9]): 0.63 ± 0.29 µM

**Q.** For CCNc1nc(=O)n([C@H]2C[C@H](O)[C@](CO)(N=[N+]=[N-])O2)cc1C [Compound 14, 4′-Azido-2′-deoxy-N^4-ethyl-5-methylcytidine], which CC50 [1] is on record?
**A.** > 100 µM

**Q.** What about the EC50 (HBV [3]; [9]) of the same compound?
**A.** > 100 µM

**Q.** For [N-]=[N+]=N[C@]1(CO)O[C@@H](n2ccc(N)nc2=O)C[C@@H]1O [4′-azido-2′-deoxycytidine], which “cytotoxicity CC25” value [4] is on record?
**A.** 0.21 µM

**Q.** With [N-]=[N+]=N[C@]1(CO)O[C@@H](n2cnc3c(N)nc(N)nc32)C[C@@H]1O [Compound 4, 4′-azido-2-amino-2′-deoxyadenosine] as the compound, how does the “potency against HBV (in words)” value (HBV [5]) read?
**A.** highly potent

**Q.** And the EC50 (HBV [5])?
**A.** 0.0051 µM

**Q.** And the “potency against HIV-1 (in words)” value (HIV-1)?
**A.** highly potent

**Q.** Which “potency against HBV (in words)” value (HBV [5]) does the source give for [N-]=[N+]=N[C@]1(CO)O[C@@H](n2cnc3c(=O)[nH]c(N)nc32)C[C@@H]1O [Compound 3, 4′-azido-2′-deoxyguanosine] here?
**A.** highly potent

**Q.** And the EC50 (HBV [5])?
**A.** 0.0097 µM

**Q.** What about the “potency against HIV-1 (in words)” value (HIV-1) of the same compound?
**A.** highly potent

**Q.** Which results are given for C=C1[C@H](CO)[C@@H](O)C[C@@H]1n1cnc2c(=O)[nH]c(N)nc21 [Entecavir]?
**A.** CC50 [1]: 57.2 ± 5.2 µM; EC50 (HBV [3]; [9]): 0.00675 ± 0.000353 µM

**Q.** Which CC50 (MT-2 cells) does the source give for CCOc1nc(=O)n([C@H]2C[C@H](O)[C@](CO)(N=[N+]=[N-])O2)cc1C [Compound 12, 4′-Azido-O^4-ethylthymidine] here?
**A.** > 100 µM

**Q.** And the EC50 (HBV [3]; [10])?
**A.** > 100 µM

**Q.** Which CC50 (MT-2 cells) does the source give for COc1nc(=O)n(C2CC(O)C(CO)(N=[N+]=[N-])O2)cc1C (stereo not shown) [Compound 11, 4′-Azido-O^4-methylthymidine] here?
**A.** > 100 µM

**Q.** And the EC50 (HBV [3]; [10])?
**A.** > 100 µM

**Q.** Which CC50 [1] does the source give for CNc1nc(=O)n([C@H]2C[C@H](O)[C@](CO)(N=[N+]=[N-])O2)cc1C [Compound 13, 4′-Azido-2′-deoxy-N4,5-dimethylcytidine] here?
**A.** > 100 µM

**Q.** And the EC50 (HBV [3]; [9])?
**A.** > 100 µM

**Q.** Which CC50 (MT-2 cells) does the source give for Cc1cn([C@H]2C[C@H](O)[C@](CO)(N=[N+]=[N-])O2)c(=O)nc1NC1CC1 [Compound 15, 4′-Azido-N′-cyclopropyl-2′-deoxy-5-methylcytidine] here?
**A.** > 100 µM

**Q.** And the EC50 (HBV [3]; [10])?
**A.** > 100 µM

**Q.** For [N-]=[N+]=N[C@]1(CO)O[C@@H](n2ccc(N)nc2=O)[C@H](F)[C@@H]1O [Compound 5, 2′-deoxy-2′-P-fluoro-4′-azido cytidine], which EC50 (HBV [6]) is on record?
**A.** 0.12 µM

**Q.** Which “anti-HIV activity (in words)” value (HIV [7]) does the source give for N#C[C@]1(CO)O[C@@H](n2cnc3c(=O)[nH]c(N)nc32)C[C@@H]1O [Compound 1, 4′-cyano-2′-deoxyguanosine] here?
**A.** potent anti-HIV activity

**Q.** What about the “replication of wild-type HBV (in words)” value (wild-type HBV) of the same compound?
**A.** block the replication

**Q.** And the “replication of entecavir-resistant HBV (in words)” value (entecavir-resistant HBV)?
**A.** block the replication

**Q.** Which “anti-HIV activity (in words)” value (HIV [7]) does the source give for N#C[C@]1(CO)O[C@@H](n2cnc3c(N)nc(N)nc32)C[C@@H]1O [Compound 2, 4′-cyano-2-amino-2′-deoxyadenosine] here?
**A.** potent anti-HIV activity

**Q.** And the “replication of wild-type HBV (in words)” value (wild-type HBV)?
**A.** block the replication

**Q.** What about the “replication of entecavir-resistant HBV (in words)” value (entecavir-resistant HBV) of the same compound?
**A.** block the replication

**Q.** What does the source list for Cc1cn([C@H]2C[C@H](O)[C@](CO)(N=[N+]=[N-])O2)c(=O)nc1N [Compound 10, 4′-Azido-2′-deoxy-5-methylcytidine]?
**A.** no cytotoxicity up to (concentration) (MT-2 cells): > 100 µM; CC50 [1]: > 100 µM; EC50 (HBV [3]; [9]): 5.99 ± 5.54 µM

**Q.** With Cc1cn([C@H]2C[C@H](F)[C@@H](CO)O2)c(=O)nc1N [Compound 8, FddMeC] as the compound, how does the EC50 (HBV [8]) read?
**A.** 0.54 µM
